In ChEMBL document CHEMBL3714729, “Heterocyclic compounds for the inhibition of pask” (2012):

What was measured:
[1] = target: T1, PAS domain-containing serine/threonine-protein kinase (Homo sapiens, UniProt Q96RG2); test: Inhibition of purified human PASK kinase domain expressed in insect cells using MBP protein substrate incubated for 10 mins before ATP addition and measured after 1 hr by kinase-Glo luminescent kinase assay
[2] = target: T1, PAS domain-containing serine/threonine-protein kinase; test: Inhibition of purified full-length human PASK expressed in insect cells using MBP protein substrate incubated for 10 mins before ATP addition and measured after 1 hr by kinase-Glo luminescent kinase assay

T1 sequence (Q96RG2 whole entry, the tested form may be a part): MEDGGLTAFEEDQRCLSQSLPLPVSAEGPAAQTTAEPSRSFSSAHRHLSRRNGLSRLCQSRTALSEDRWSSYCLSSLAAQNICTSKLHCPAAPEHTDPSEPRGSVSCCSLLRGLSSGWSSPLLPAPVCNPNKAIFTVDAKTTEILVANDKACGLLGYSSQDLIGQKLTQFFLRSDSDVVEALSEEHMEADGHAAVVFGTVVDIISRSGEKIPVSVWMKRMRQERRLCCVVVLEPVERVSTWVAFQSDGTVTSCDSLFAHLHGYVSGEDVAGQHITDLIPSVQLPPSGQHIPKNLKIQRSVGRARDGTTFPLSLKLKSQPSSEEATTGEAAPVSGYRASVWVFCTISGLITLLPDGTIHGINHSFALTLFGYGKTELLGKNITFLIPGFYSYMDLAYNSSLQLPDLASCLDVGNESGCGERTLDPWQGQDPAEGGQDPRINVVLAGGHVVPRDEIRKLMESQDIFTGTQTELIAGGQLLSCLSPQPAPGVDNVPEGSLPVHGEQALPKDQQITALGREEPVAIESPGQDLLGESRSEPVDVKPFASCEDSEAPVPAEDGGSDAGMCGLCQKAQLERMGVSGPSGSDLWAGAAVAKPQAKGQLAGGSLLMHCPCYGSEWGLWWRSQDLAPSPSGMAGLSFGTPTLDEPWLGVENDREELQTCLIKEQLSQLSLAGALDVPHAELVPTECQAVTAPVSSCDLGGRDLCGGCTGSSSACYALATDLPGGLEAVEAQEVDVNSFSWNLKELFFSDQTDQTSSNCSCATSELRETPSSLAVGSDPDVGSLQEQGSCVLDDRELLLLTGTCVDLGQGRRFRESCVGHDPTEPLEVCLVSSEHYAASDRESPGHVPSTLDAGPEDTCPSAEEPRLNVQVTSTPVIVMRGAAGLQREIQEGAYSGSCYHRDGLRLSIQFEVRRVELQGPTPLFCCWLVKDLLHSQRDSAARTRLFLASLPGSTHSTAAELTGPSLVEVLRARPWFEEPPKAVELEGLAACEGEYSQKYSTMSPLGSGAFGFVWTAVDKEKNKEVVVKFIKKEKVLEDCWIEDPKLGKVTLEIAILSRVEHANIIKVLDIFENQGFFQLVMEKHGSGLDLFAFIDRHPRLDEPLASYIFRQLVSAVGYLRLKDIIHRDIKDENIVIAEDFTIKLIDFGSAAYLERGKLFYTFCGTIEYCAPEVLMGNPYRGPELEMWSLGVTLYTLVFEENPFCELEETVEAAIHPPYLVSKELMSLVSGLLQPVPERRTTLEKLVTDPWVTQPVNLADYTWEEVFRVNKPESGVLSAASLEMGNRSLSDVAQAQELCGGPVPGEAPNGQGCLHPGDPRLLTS

Compound	IC50 [1] [µM]	IC50 [2] [µM]
Cc1nn2c(=O)cc(-c3ccc(Cl)cc3)[nH]c2c1-c1ccccc1	≤ 10	≤ 10
CCc1c(C)[nH]c2c(-c3ccc(Cl)cc3)c(C)nn2c1=O	≥ 10	≥ 10
O=c1c2c([nH]c3c(-c4ccc(Cl)cc4)c(Cc4ccccc4)nn13)CCC2	≥ 10	≥ 10
Cc1nn2c(=O)c3c([nH]c2c1-c1ccc(Cl)cc1)CCC3	≥ 10	≥ 10
O=c1cc(Cc2ccccc2)[nH]c2c(-c3ccccc3)c(-c3ccccc3)nn12	≥ 10	≥ 10
COc1ccc(-c2cc(=O)n3nc(C)c(-c4ccccc4)c3[nH]2)cc1	≤ 10	≤ 10
O=c1c2c([nH]c3c(-c4ccccc4)c(-c4ccccc4)nn13)CCC2	–	≥ 10
CCCc1cc(=O)n2nc(Cc3ccccc3)c(-c3ccc(Cl)cc3)c2[nH]1	≥ 10	≥ 10
O=c1cc(-c2ccccc2)[nH]c2c(-c3ccc(Cl)cc3)c(Cc3ccccc3)nn12	≥ 10	≥ 10
Cc1nn2c(=O)c(C#N)c(-c3ccccc3)[nH]c2c1-c1ccccc1	–	≥ 10
COc1ccc(Cc2nn3c(=O)cc(-c4ccccc4)[nH]c3c2-c2ccccc2)cc1	≥ 10	≥ 10
O=c1cc(-c2ccc([N+](=O)[O-])cc2)[nH]c2c(-c3ccc(Cl)cc3)c(Cc3ccccc3)nn12	≤ 10	≤ 10
O=c1cc(Cc2ccccc2)[nH]c2c(-c3ccccc3)c(Cc3ccccc3)nn12	≥ 10	≥ 10
Cc1nn2c(=O)cc(-c3ccc([N+](=O)[O-])cc3)[nH]c2c1-c1ccc(Cl)cc1	≤ 10	≤ 10
Cc1nn2c(=O)cc(-c3ccccc3)[nH]c2c1-c1ccc(F)cc1	≥ 10	≥ 10
COCc1cc(=O)n2nc(Cc3ccccc3)c(-c3ccc(Cl)cc3)c2[nH]1	≥ 10	≥ 10

Compound	IC50 [1] [µM]	IC50 [2] [µM]
O=c1cc(-c2ccccc2)[nH]c2c(-c3ccccc3)c(Cc3ccccc3)nn12	–	≥ 10
CCc1c(C)[nH]c2c(-c3ccccc3)c(Cc3ccc(OC)cc3)nn2c1=O	≥ 10	≥ 10
COCc1cc(=O)n2nc(Cc3ccccc3)c(-c3ccc(OC)cc3)c2[nH]1	≥ 10	≥ 10
Cc1ccc(-c2cc(=O)n3nc(C)c(-c4ccccc4)c3[nH]2)cc1	≥ 10	≥ 10
COc1ccccc1-c1cc(=O)n2nc(C)c(-c3ccccc3)c2[nH]1	≤ 10	≤ 10
Cc1[nH]c2c(-c3ccc(Cl)cc3)cnn2c(=O)c1Cc1ccccc1	≤ 10	≤ 10
CCCc1cc(=O)n2nc(C)c(-c3ccc(Cl)cc3)c2[nH]1	≥ 10	≥ 10
COc1ccc(-c2nn3c(=O)cc(C(C)C)[nH]c3c2-c2ccccc2)cc1	≥ 10	≥ 10
COc1ccc(Cc2nn3c(=O)cc(C)[nH]c3c2-c2ccccc2)cc1	≥ 10	≥ 10
Cc1cc(=O)n2nc(C)c(-c3ccc(Cl)cc3)c2[nH]1	≥ 10	≥ 10
O=c1cc(-c2ccccc2)[nH]c2c(-c3cccc4ccccc34)c(Cc3ccccc3)nn12	≥ 10	≥ 10
COCc1cc(=O)n2nc(-c3ccc(Cl)cc3)cc2[nH]1	≥ 10	≥ 10
COc1ccc(-c2c(C)nn3c(=O)cc(Cc4ccccc4)[nH]c23)cc1	≥ 10	≥ 10
Cc1nn2c(=O)cc(-c3ccccc3)[nH]c2c1-c1ccc(Cl)cc1	≤ 10	≤ 10
COc1ccc(-c2cc(=O)n3nc(C)c(-c4ccc(F)cc4)c3[nH]2)cc1	≤ 10	≤ 10
